From article PMC9917249, “Zinc Inhibits the GABAAR/ATPase during Postnatal Rat Development: The Role of Cysteine Residue” (International Journal of Molecular Sciences, 2023)

Target: T1, homomeric GABAAR β3 (Rattus norvegicus, UniProt P63079)
T1 construct: gene Gabrb3
Test: BCECF fluorescence, GABA-mediated HCO3- efflux
Format: cell-based
Details: 25 mM HCO3-; pH 7.4

T1 sequence (P63079 26-473): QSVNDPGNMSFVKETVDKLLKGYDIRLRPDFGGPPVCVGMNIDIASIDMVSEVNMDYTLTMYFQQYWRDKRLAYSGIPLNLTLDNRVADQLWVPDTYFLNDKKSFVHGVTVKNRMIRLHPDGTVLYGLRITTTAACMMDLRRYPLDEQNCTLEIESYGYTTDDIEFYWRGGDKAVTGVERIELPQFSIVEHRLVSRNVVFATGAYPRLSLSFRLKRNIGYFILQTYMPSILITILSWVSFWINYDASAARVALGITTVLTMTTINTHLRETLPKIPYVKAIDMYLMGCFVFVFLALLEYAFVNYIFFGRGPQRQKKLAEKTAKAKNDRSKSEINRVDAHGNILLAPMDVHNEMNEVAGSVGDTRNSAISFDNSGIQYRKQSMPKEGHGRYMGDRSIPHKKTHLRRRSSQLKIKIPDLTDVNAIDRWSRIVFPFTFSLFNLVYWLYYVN

NCCCC(=O)O [GABA]
maximum peak fluorescence change at 100 μM GABA: 14.0 ± 1.3%
